Where two headings read alike, the source gives them in different places. Each block holds one compound with its values, some of them ahead of it.
Assays:
CCRF-CEM cell line [1] = assay: CCRF-CEM proliferation, compound alone (nonspecific toxicity); type: cell-based, human; settings: compound 10 µM alone, 72 h
Method: The dCK cellular assay was set up to assess the ability to inhibit dCK activity in a cellular model. The model was developed with a T-cell acute lymphoblastic leukemia cell line (CCRF-CEM), because of its high dependence on the SP, thus on dCK activity. Cellular assays were performed to assess the inhibition of cell proliferation under two conditions: (i) in the presence of the compound alone to determine the nonspecific effect on cells, independent of dCK (nonspecific toxicity) and (ii) in the presence of an inhibitor of the DNP to determine the ability of compounds to inhibit dCK and decrease tumor proliferation (activity on dCK). The inhibitor of the DNP chosen for the experiments was thymidine (dT), a physiological inhibitor of ribonucleotide reductase which arrests cell proliferation in phase S. The dTTP produced via thymidine kinase from dT acts as a RNR inhibitor by an allosteric regulation of the R1 subunit. The addition of the nucleoside deoxycytidine (dC) in the medium allows the rescue of cell proliferation by passing only through the salvage pathway, mediated by dCK. dC needs to be added exogenously to mimic physiological concentrations because it is not present in the cell culture medium, on the contrary to mouse model, in which it is naturally present in the serum. Therefore, cell proliferation under these conditions (+dT +dC) is dCK dependent and it is possible to determine the IC50 of dCK inhibitors on the inhibition of cell proliferation. Results are expressed as % cell proliferation relative to the control with DMSO.
The amount of reduced dye formed by metabolically active cells was quantified by its fluorescence measured at 560 nm (excitation) and 590 nm (emission) in a microplate reader (CLARIOstar, BMG Labtech). A blank well without cells was used as a background control. Each experiment was performed at least three times (with technical triplicates) and data are presented as the mean ± SD.

dCK-C3S-S74E [2] = target: T1, dCK-C3S-S74E (Homo sapiens, UniProt P27707, form not given/S74E); assay: Enzymatic assay (PK/LDH coupled), dC phosphorylation by dCK in the presence of ATP; type: biochemical
T1 sequence (P27707 whole entry S74E, form open): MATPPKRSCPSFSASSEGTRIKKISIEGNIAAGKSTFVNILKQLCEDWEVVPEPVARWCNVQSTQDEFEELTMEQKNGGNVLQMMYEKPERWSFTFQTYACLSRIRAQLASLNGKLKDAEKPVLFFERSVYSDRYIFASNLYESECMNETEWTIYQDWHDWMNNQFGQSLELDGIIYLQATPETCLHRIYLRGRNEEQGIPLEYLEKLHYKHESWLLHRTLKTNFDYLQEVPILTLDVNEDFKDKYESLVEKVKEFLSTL
Method: (§1) For enzymatic assays, cells were re-suspended in 20 mM TRIS, pH 8 500 mM NaCl, 0.1% BRIJ-35 and 5% glycerol buffer and one EDTA free anti-protease tablet was added (Roche). After sonication and centrifugation (30,000 × g), the supernatant was loaded on a 5 ml HisTrap FF column (GE healthcare) pre-equilibrated with 20 mM TRIS, pH 8, 500 mM NaCl, 0.01% BRIJ-35 and 5% glycerol buffer. The protein was then eluted by the same buffer containing 250 mM imidazole after a wash containing 25 mM imidazole. The eluted fraction was applied on a HiPrep 26/10 desalting column (GE healthcare) pre-equilibrated with 20 mM TRIS, pH 8, 500 mM NaCl, 5% glycerol and 0.01% BRIJ-35 buffer. Finally, protein in a 20% glycerol buffer was flash frozen in liquid nitrogen and stored at −80 °C.
(§2) Kinetic analyses were performed using a spectrophotometric continuous enzymatic-coupled assay using pyruvate kinase (PK) and lactate dehydrogenase (LDH). Analysis of the effect of compounds on dCK-C3S-S74E activity was performed using dC as substrate and UTP/ATP as phosphate donors. UTP is the physiological dCK-phosphate donor[46] and it was used to determine activation versus inhibition behavior. ATP was used to calculate IC50 values, as it allows the analysis of a dose response curve. The PK/LDH coupled assay is based on the conversion of phosphoenolpyruvate (PEP) and UDP/ADP to pyruvate and UTP/ATP by PK and the subsequent conversion of pyruvate to lactate by LDH. The latter step requires NADH, which is oxidized to NAD^+. NADH is fluorescent (excitation at 337 nm and emission at 460 nm), but not NAD^+. Thus, the measurement of fluorescent decrease at 460 nm is a measure of kinase activity. dCK experiments were performed in a buffer containing 50 mM HEPES, pH 7.5, 5 mM MgCl2, 1 mM DTT, and 100 mM KCl. Buffer was supplemented with PK (0.01 U/µl), LDH (0.02 U/µl), PEP (1 mM), NADH (300 µM) and compounds at varying concentrations. For UTP assays, protein concentration was 2 μM, substrate 200 µM (dC), and UTP 1 mM. For ATP assays, protein concentration was 100 nM (and 50 nM when indicated), substrate 100 µM (dC), and ATP 1 mM. All measurements were performed on a microplate reader Pherastar FS (BMG Labtech). All assays were performed in triplicate and each experiment was performed at least twice. The data are presented as mean ± SD. The results were plotted as kinetics and the velocity was determined for each condition as the slope of the linear range of the curve. For each compound concentration, the velocity of the reaction (according to V = d[P]/dt) was normalized with respect to the drug free control and velocity ratios were compared. IC50 values corresponding to enzymatic inhibition in ATP were calculated by nonlinear regression curves using GraphPad Prism software 9.4.0.

dCK-C3S-S74E [3] = target: T1, dCK-C3S-S74E; assay: Thermal shift assay (TSA); settings: for ΔTm (º) (TSA): Figure 2a, mean
T1 sequence (P27707 whole entry S74E, form open): as above
From the text: (§4) BL21 pRIL Escherichia coli cells were transformed with dCK-plasmids (dCK-C4S-S74E (for crystallization assays) and dCK-C3S-S74E (for TSA, enzymatic and ITC assays)). […] Protein dCK-C3S-S74E used for other assays contained only three mutated cysteines. The S74E mutation mimics the phosphorylated state of this serine, which favors the open conformation of the enzyme, making it competent for nucleoside binding[45] to evaluate the binding affinity with compounds.
(§5) For binding assays (TSA, ITC and crystallography) cells were re-suspended in 50 mM TRIS, pH 8, 500 mM NaCl, 30 mM imidazole and 10% glycerol buffer and one EDTA free anti-protease tablet was added (Roche). After sonication and centrifugation (30,000 × g), the supernatant was loaded on a 5 ml HisTrap FF column (GE healthcare) pre-equilibrated with resuspension buffer. Protein was then eluted by resuspension buffer containing 500 mM imidazole. Protein eluted fractions were mixed and concentrated. Protein was further purified by size exclusion chromatography (superdex 200 16/600, GE healthcare) in 20 mM HEPES, pH 7.5, and 200 mM NaCl before concentration to 30 mg/ml and storage at −80 °C.
(§6) Thermal shift assay (TSA) experiments were performed in 384-well PCR white plates in the assay buffer containing 20 mM HEPES, pH 7.5 and 200 mM NaCl. […] Plates were centrifuged at 200 × g for 2 min at 4 °C. […] Raw fluorescence data were treated, and the melting temperatures (Tm) were calculated using CFX Manager 3.1 software (Bio-Rad). ΔTm represents the difference in Tm between the protein in the presence of compound and the protein alone (both at 2% DMSO). Each experiment was performed at least twice (with technical triplicates) and data are presented as the mean ± SD.

CCRF-CEM cell line [4] = assay: dCK cellular assay: CCRF-CEM proliferation in the presence of dT and dC; type: cell-based, human; settings: CCRF-CEM; for IC50: Homo sapiens
In short: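 Two conditions in T-ALL CCRF-CEM cells: compound only, and compound with thymidine blocking de novo synthesis and deoxycytidine rescuing via dCK. Metabolic dye fluorescence (560/590 nm) gives % proliferation vs DMSO; IC50s, mean ± SD of at least three triplicate runs.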

dCK-C3S-S74E [5] = target: T1, dCK-C3S-S74E; assay: Enzymatic assay (PK/LDH coupled), dC phosphorylation by dCK in the presence of UTP; type: biochemical; settings: presence of UTP
Method: as §1
as §2, with “Analysis of the effect of compounds on dCK-C3S-S74E activity was performed using dC as substrate and UTP/ATP as phosphate donors.” left out

[6] = Plasma pharmacokinetics after IP administration; type: in vivo; settings: male, Swiss, mouse, mice, dose 20 mg/Kg
Method: (§3) To evaluate the in vivo toxicity selected compounds were injected by intraperitoneal (IP) route to 7 weeks-old male Swiss mice (n = 2) at 10, 20, 40, 50, or 80 mg/kg by unique injection. […] Compounds were administered in their hydrochloride salt forms. Mice were then observed closely for the next one hour, then every hour for 8 h. Observations were continued for 72 h for signs of pain or toxicity such as change in the behavior and in the activity in the cage (decreased locomotion) or change in the appearance (curved back, eyes half-closed, bristle hair, hips hollowed out). In vivo toxicity of compound OR0642 at 40 and 80 mg/kg was also assessed in the NOD-SCID-IL2Rγc null (NSG) mice model for 2 weeks in the presence and absence of dT to confirm the safety of the compound. […]. Blood samples were collected and spun at 10,000 × g prior to collecting the plasma supernatants. All plasma samples were frozen at −80 °C before sample processing. 13 μl of each plasma sample was mixed with 33 μl of acetonitrile to precipitate proteins and extract the compound. Samples were vortexed for 5 min and then placed in an ultrasonic bath for 1 min. The precipitated proteins were sedimented by centrifugation (15,000 × g, 5 min, 16 °C). Supernatants were transferred to a microplate to be analyzed by LC–MS/MS. All samples were analyzed with a UHPLC coupled to a Shimadzu LC-MS 8030 triple quadrupole. The solutions of a standard range, prepared with plasma from untreated mice, were analyzed in the same series of injections.

[7] = Acute in vivo toxicity, unique IP injection; settings: male, mouse, in vivo; Swiss mice, IP, unique injection; read-out: Maximum tolerated dose
Method: as §3

dCK-C3S-S74E [8] = assay: Enzymatic assay (PK/LDH coupled), dC phosphorylation by dCK in the presence of UTP; type: biochemical, human; settings: presence of UTP
Method: as §1
as §2, with “Analysis of the effect of compounds on dCK-C3S-S74E activity was performed using dC as substrate and UTP/ATP as phosphate donors.” left out

dCK-C3S-S74E [9] = assay: Enzymatic assay (PK/LDH coupled), dC phosphorylation by dCK in the presence of ATP; type: biochemical, human; settings: presence of ATP, [dCK] = 100 nM; read-out: ENZYMATIC ASSAY IC50
Method: as §1, §2

dCK-C3S-S74E [10] = assay: Thermal shift assay (TSA); settings: mean ± SD
From the text: as §4, §5, §6

[11] = read-out: dCK CELLULAR ASSAY IC50 (nM), 200 µM dT and 1 µM dC, read-out: dCK […] ASSAY IC50

Compound: Cc1ccc(NC(=O)c2ccc(CN3CCN(C)CC3)cc2)cc1Nc1nc(-c2cccnc2)cs1 [Masitinib, masitinib, reference compound]
- Cell proliferation of the CCRF-CEM cell line Mean (% prolif) (CCRF-CEM cell line [1]): 87.5%

Compound: CCCN(c1nc(-c2nc(N)cc(N)n2)cs1)c1cc(-c2ccc(S(=O)(=O)N3CCN(C)CC3)cc2)ccc1C [OR0624]
- ENZYMATIC ASSAY (Activation/Inhibition) (dCK-C3S-S74E [5]): I
- Enzymatic activity (ATP) Mean (% activity) (dCK-C3S-S74E [2]; 0.02 µM): 91.0%
- Enzymatic activity (ATP) Mean (% activity) (dCK-C3S-S74E [2]; 0.04 µM): 91.7%
- Enzymatic activity (ATP) Mean (% activity) (dCK-C3S-S74E [2]; 0.08 µM): 65.2%
- Enzymatic activity (ATP) Mean (% activity) (dCK-C3S-S74E [2]; 0.16 µM): 32.0%
- Enzymatic activity (ATP) Mean (% activity) (dCK-C3S-S74E [2]; 0.31 µM): 9.2%
- Enzymatic activity (ATP) Mean (% activity) (dCK-C3S-S74E [2]; 0.63 µM): 3.9%
- Enzymatic activity (ATP) Mean (% activity) (dCK-C3S-S74E [2]; 1.25 µM): 2.6%
- Enzymatic activity (ATP) Mean (% activity) (dCK-C3S-S74E [2]; 2.5 µM): 1.2%
- Enzymatic activity (ATP) Mean (% activity) (dCK-C3S-S74E [2]; 5 µM): 0.363%
- IC50 (dCK-C3S-S74E [2]; read-out: ENZYMATIC ASSAY IC50, presence of ATP, [dCK] = 50 nM (footnote A)): 0.198 ± 0.131 µM
- ΔTm (º) (TSA) (dCK-C3S-S74E [3]): 19.49 º
- Thermal Shift Assay Mean (ΔTm (º)) (dCK-C3S-S74E [3]; Figure 2b): 19.5 º
- THERMAL SHIFT ASSAY +Tm (°) (dCK-C3S-S74E [3]; mean ± SD): 19.5 ± 0.8 °
- Cmax [6]: 3.1 ± 0.6 µM
- Tmax [6]: 1 h
- half-life ([6]; read-out: T ½ (converted)): 2.22 ± 0.183 h
- MTD at 72 h [7]: 20 mg/kg

Compound: CCCN(c1nc(-c2nccc(N)n2)cs1)c1cc(-c2ccc(OCC(=O)N3CCN(C)CC3)cc2)ccc1C [OR0597]
- ENZYMATIC ASSAY (Activation/Inhibition) (dCK-C3S-S74E [5]): I
- IC50 (dCK-C3S-S74E [2]; read-out: ENZYMATIC ASSAY IC50, presence of ATP, [dCK] = 100 nM): 0.349 ± 0.089 µM
- IC50 (CCRF-CEM cell line [4]; [11]): 220 ± 127 nM

Compound: CCCN(c1nc(-c2nc(N)cc(N)n2)cs1)c1cc(-c2ccc(S(=O)(=O)N3CCN(CC(=O)[O-])CC3)cc2)ccc1C.[Na+] [OR0649]
- ΔTm (º) (TSA) (dCK-C3S-S74E [3]): 17.61 º
- IC50 (CCRF-CEM cell line [4]; read-out: IC50 (nM) (Cell Prolif)): 13400 nM

Compound: Cc1ccc(NC(=O)c2ccc(CN3CCN(C)CC3)cc2)cc1Nc1nc(-c2ncc(F)c(N)n2)cs1 [OR0239]
- ENZYMATIC ASSAY (Activation/Inhibition) (dCK-C3S-S74E [8]): A/I
- IC50 (dCK-C3S-S74E [9]): 3.35 ± 1.07 µM
- THERMAL SHIFT ASSAY +Tm (°) (dCK-C3S-S74E [10]): 14.3 ± 0.4 °
- IC50 (CCRF-CEM cell line [4]; [11]): 14800 ± 1580 nM

Now from value to compound, other results behind:

- IC50 (dCK-C3S-S74E [2]; ATP, read-out: enzymatic inhibition IC50): > 100 µM
- ΔTm, dCK thermal stabilization (TSA) (dCK-C3S-S74E [3]; 5 μM protein, 50 μM compound): 6.3 °C
Compound: CCCN(c1nc(-c2cccnc2)cs1)c1cc(-c2ccc(S(=O)(=O)N3CCN(C)CC3)cc2)ccc1C [OR0659]
- inhibition of cell proliferation in combination with dT (CCRF-CEM cell line [4]; presence of dT + dC): unable to inhibit cellular proliferation

- ENZYMATIC ASSAY (Activation/Inhibition) (dCK-C3S-S74E [8]): A/I
- IC50 (dCK-C3S-S74E [9]): 2.04 ± 0.684 µM
- THERMAL SHIFT ASSAY +Tm (°) (dCK-C3S-S74E [10]): 16.9 ± 0.4 °
- IC50 (CCRF-CEM cell line [4]; [11]): 2180 ± 388 nM
Compound: Cc1ccc(C#Cc2ccc(CN3CCN(C)CC3)cc2)cc1Nc1nc(-c2nccc(N)n2)cs1 [OR0153]

- ENZYMATIC ASSAY (Activation/Inhibition) (dCK-C3S-S74E [8]): I
- IC50 (dCK-C3S-S74E [9]): 0.301 ± 0.078 µM
- THERMAL SHIFT ASSAY +Tm (°) (dCK-C3S-S74E [10]): 19.1 ± 0.2 °
- IC50 (CCRF-CEM cell line [4]; [11]): 776 ± 206 nM
Compound: CCCN(c1nc(-c2nccc(N)n2)cs1)c1cc(-c2ccc(CCCN3CCN(C)CC3)cc2)ccc1C [OR0598]

- ENZYMATIC ASSAY (Activation/Inhibition) (dCK-C3S-S74E [8]): I
- IC50 (dCK-C3S-S74E [9]): 0.137 ± 0.003 µM
- THERMAL SHIFT ASSAY +Tm (°) (dCK-C3S-S74E [10]): 20.8 ± 0.7 °
- IC50 (CCRF-CEM cell line [4]; [11]): 420 ± 83 nM
Compound: CCCN(c1nc(-c2nc(N)cc(N)n2)cs1)c1cc(-c2ccc(CCCN3CCN(C)CC3)cc2)ccc1C [OR0601]

Reference: article PMC10227015, “From a drug repositioning to a structure-based drug design approach to tackle acute lymphoblastic leukemia” (Nature Communications, 2023)
